# Data: patent US20100203125A1, “SYNERGISTIC ANTIBACTERIAL FORMULATION AND A METHOD OF MAKING THE SAME” (priority 2004, published 2010)
# Where two headings read alike, the source gives them in different places.
# Columns and labels:
# [1] = in vivo, cited from earlier work; for Serum half-life / half life / Bioavailability after oral administration: human
# [2] = test system: plasma proteins; details: cited from earlier work
# [3] = test system: Neisseria gonorrhoeae; details: cited from earlier work
# [4] = test system: Staphylococcus epidermidis; details: cited from earlier work
# [5] = Clinical Trial 2, comparative plasma concentration study; details: for Plasma concentration from the formulation compared with conventional separate dosing: human, in vivo
# Description: Comparative studies were conducted on 24 healthy male patients who were pre-tested for non-allergic conditions against Betalactam and Cephalsporin antibiotics.
# [6] = test system: Staphylococcus aureus; details: cited from earlier work
# [7] = test system: Streptococcus pneumoniae; details: cited from earlier work
# [8] = test system: Streptococcus pyogenes; details: cited from earlier work
# [9] = test system: S. epidermidis [C4]; experiment: Zone of inhibition study; format: cell-based; details: 37° C. 24 hours, excluding well diameter
# Description: (§1) Quantitative methods of susceptibility testing that require measurements of zone diameters give the most precise estimates of antibiotic susceptibility. Zone of inhibition study was performed Cefixime and dicloxacillin combination with suitable concentration and compare with the zone of inhibition of individual antibiotic to study the synergy. Nutrient Agar plates (duplicate sets) were used for inoculation of microorganism culture using spread plate technique. Wells of 6.0 mm diameter were made in agar plate and test and standard antibiotics preparations were placed in the respective wells. Suitable control plates and plates with no antibiotics were simultaneously then inoculated after appropriate dilution on separate nutrient agar plates (duplicate sets) using spread plate technique. […] All the diameters [zone of inhibition] were measure excluding the well diameter. Four species of bacteria namely E. coli [C1], S. aureus [C2], Salmonella typhimurium [C3], and S. epidermidis [C4] were selected for zone of inhibition study. […] There was no zone of inhibitions found for control plates.
# [10] = test system: Salmonella typhimurium [C3]; experiment: Zone of inhibition study; format: cell-based; details: 37° C. 24 hours, excluding well diameter
# Description: as §1
# [11] = test system: S. aureus [C2]; experiment: Zone of inhibition study; format: cell-based; details: 37° C. 24 hours, excluding well diameter
# Description: as §1
# [12] = test system: E. coli [C1]; experiment: Zone of inhibition study; format: cell-based; details: 37° C. 24 hours, excluding well diameter
# Description: as §1
# [13] = in vivo
# [14] = cited from earlier work
# [15] = in vivo; cited from earlier work
# [16] = Plasma concentration levels of cefixime and dicloxacillin formulation (Table 4); details: in vivo
structure (smiles),measurement,setting,value
Cc1onc(-c2ccccc2)c1C(=O)N[C@@H]1C(=O)N2[C@@H]1SC(C)(C)[C@@H]2C(=O)O [oxacillin],Serum half-life / half life,[1],18 to 48 min
same,Bound to plasma proteins,[2]; plasma,89-94%
Cc1onc(-c2ccccc2Cl)c1C(=O)N[C@@H]1C(=O)N2[C@@H]1SC(C)(C)[C@@H]2C(=O)O [Cloxacillin],MIC90,[3],0.1 µg/mL
same,MIC90,[4],0.1 µg/mL
same,Plasma concentration from the formulation compared with conventional separate dosing,[5],significantly better plasma concentration
same,MIC90,[6],0.1 µg/mL
same,Serum half-life / half life,[1],24 to 48 min
same,Urinary clearance rate,[1]; iv,162.2 mL/min
same,Cmax,[1],8000 ng/mL
same,Half life,[1],38 min
same,Plasma half life,[1],0.5 h-0.65
same,Plasma half-life,[1],30 to 90 min
same,MIC90,[7],0.25 µg/mL
same,MIC90,[8],0.1 µg/mL
same,Plasma protein binding,[2]; plasma,93-95%
Cc1onc(-c2ccccc2)c1C(=O)NC1C(=O)N2[C@@H]1SC(C)(C)[C@@H]2C(=O)[O-].[Na+] (stereo partly drawn) [Oxacillin sodium],Bioavailability after oral administration,[1]; po,30-35%
Cc1onc(-c2c(Cl)cccc2Cl)c1C(=O)N[C@@H]1C(=O)N2[C@@H]1SC(C)(C)[C@@H]2C(=O)O [Dicloxacillin],Zone of inhibition,[9],15 mm
same,Zone of inhibition,[10],10 mm
same,Zone of inhibition,[11],15 mm
same,Zone of inhibition,[12],9 mm
same,Bioavailability after oral administration,[1]; po,60-80%
same,Oral absorption,[1]; po,60-80%
same,Excreted into the urine,[1],about 60%
same,Plasma half life,[1],0.5 to 1 h
same,Plasma half-life,[1],30 to 90 min
same,Urinary Excretion,[1],60%
same,Vol Distribution,[1],0.1 mL/g
same,Volume of distribution,[1],0.1 mL/g
same,concentration at 0 h,[13],0 ng/mL
same,concentration at 0.5 h,[13],700 ng/mL
same,concentration at 1 h,[13],810 ng/mL
same,concentration at 2 h,[13],2260 ng/mL
same,concentration at 3 h,[13],3100 ng/mL
same,concentration at 4 h,[13],3940 ng/mL
same,concentration at 6 h,[13],4100 ng/mL
same,concentration at 8 h,[13],2960 ng/mL
same,concentration at 10 h,[13],2400 ng/mL
same,concentration at 12 h,[13],1380 ng/mL
same,concentration at 14 h,[13],630 ng/mL
same,concentration at 16 h,[13],300 ng/mL
same,concentration at 20 h,[13],0 ng/mL
same,concentration at 24 h,[13],0 ng/mL
same,Bound to plasma proteins,[2]; plasma,90-98%
same,Plasma protein binding,[2]; plasma,90-98%
"Cc1onc(-c2ccccc2Cl)c1C(=O)N[C@@H]1C(=O)N2[C@@H]1SC(C)(C)[C@@H]2C(=O)O [Cloxacillin sodium, chlorphenylmethyl isoxazolyl penicillin sodium]",Bioavailability after oral administration,[1]; po,37-60%
C=CC1=C(C(=O)O)N2C(=O)[C@@H](NC(=O)/C(=N\OCC(=O)O)c3csc(N)n3)[C@H]2SC1 [Cefixime],Solubility in dehydrated alcohol,[14],sparingly soluble
same,Solubility in ethyl acetate,[14],practically insoluble
same,Solubility in methyl alcohol,[14],freely soluble
same,Solubility in water,[14],slightly soluble
same,Acute toxicity,[15],negligibly low
same,Plasma concentration from the formulation compared with conventional separate dosing,[5],better
same,Blood plasma conc,"[5]; separate tablets (Cloxacillin 250 mg × 2, Cefixime 200 mg), 1 hrs",0.46
same,Blood plasma conc,"[5]; separate tablets (Cloxacillin 250 mg × 2, Cefixime 200 mg), 2 hrs",1.23
same,Blood plasma conc,"[5]; separate tablets (Cloxacillin 250 mg × 2, Cefixime 200 mg), 3 hrs",1.52
same,Blood plasma conc,"[5]; separate tablets (Cloxacillin 250 mg × 2, Cefixime 200 mg), 4 hrs",1.79
same,Blood plasma conc,"[5]; separate tablets (Cloxacillin 250 mg × 2, Cefixime 200 mg), 6 hrs",1.14
same,Blood plasma conc,"[5]; separate tablets (Cloxacillin 250 mg × 2, Cefixime 200 mg), 8 hrs",0.88
same,Blood plasma conc,"[5]; separate tablets (Cloxacillin 250 mg × 2, Cefixime 200 mg), 9 hrs",0.72
same,Blood plasma conc,"[5]; separate tablets (Cloxacillin 250 mg × 2, Cefixime 200 mg), 10 hrs",0.6
same,Blood plasma conc,"[5]; separate tablets (Cloxacillin 250 mg × 2, Cefixime 200 mg), 12 hrs",0.5
same,Blood plasma conc,"[5]; separate tablets (Cloxacillin 250 mg × 2, Cefixime 200 mg), 14 hrs",0.36
same,Blood plasma conc,"[5]; separate tablets (Cloxacillin 250 mg × 2, Cefixime 200 mg), 16 hrs",0.2
same,Blood plasma conc,"[5]; separate tablets (Cloxacillin 250 mg × 2 at 6 hour interval, Cefixime 200 mg), 0 hrs, average of 24",0
same,Blood plasma conc,"[5]; synergetic formulation (Cloxacillin 500 mg, Cefixime in combination), 0 hrs, average of 24",0
same,Blood plasma conc,"[5]; synergetic formulation (Cloxacillin 500 mg, Cefixime in combination), 1 hrs",0.7
same,Blood plasma conc,"[5]; synergetic formulation (Cloxacillin 500 mg, Cefixime in combination), 2 hrs",1.4
same,Blood plasma conc,"[5]; synergetic formulation (Cloxacillin 500 mg, Cefixime in combination), 3 hrs",1.58
same,Blood plasma conc,"[5]; synergetic formulation (Cloxacillin 500 mg, Cefixime in combination), 4 hrs",2.01
same,Blood plasma conc,"[5]; synergetic formulation (Cloxacillin 500 mg, Cefixime in combination), 6 hrs",1.52
same,Blood plasma conc,"[5]; synergetic formulation (Cloxacillin 500 mg, Cefixime in combination), 8 hrs",1.03
same,Blood plasma conc,"[5]; synergetic formulation (Cloxacillin 500 mg, Cefixime in combination), 9 hrs",0.91
same,Blood plasma conc,"[5]; synergetic formulation (Cloxacillin 500 mg, Cefixime in combination), 10 hrs",0.72
same,Blood plasma conc,"[5]; synergetic formulation (Cloxacillin 500 mg, Cefixime in combination), 12 hrs",0.6
same,Blood plasma conc,"[5]; synergetic formulation (Cloxacillin 500 mg, Cefixime in combination), 14 hrs",0.34
same,Blood plasma conc,"[5]; synergetic formulation (Cloxacillin 500 mg, Cefixime in combination), 16 hrs",0.18
same,Oral absorption,[1]; po,50%
same,Oral dose absorbed from the gastrointestinal tract,[1]; po,40-50%
same,Eliminated by nonrenal mechanisms,[1],Up to 60%
same,Plasma half-life,[1],180 min
same,Urinary Excretion,[1],34-48%
same,Vol Distribution,[1],0.30 ± 0.03
same,concentration at 0 h,[16],0 ng/mL
same,concentration at 0.5 h,[16],360 ng/mL
same,concentration at 1 h,[16],520 ng/mL
same,concentration at 2 h,[16],1340 ng/mL
same,concentration at 3 h,[16],1620 ng/mL
same,concentration at 4 h,[16],1840 ng/mL
same,concentration at 6 h,[16],1560 ng/mL
same,concentration at 8 h,[16],980 ng/mL
same,concentration at 10 h,[16],600 ng/mL
same,concentration at 12 h,[16],500 ng/mL
same,concentration at 14 h,[16],350 ng/mL
same,concentration at 16 h,[16],200 ng/mL
same,concentration at 20 h,[16],0 ng/mL
same,concentration at 24 h,[16],0 ng/mL
same,Plasma protein binding,[2]; Table 1,60-70%
